Source: patent US10570117B2, “Phenylimidazole compound” (Otsuka Pharmaceutical Factory, Inc., priority 2015, dated 2020)
≈ marks a conversion by molar mass, not a printed value. Where two headings read alike, the source gives them in different places.

Columns and labels:
[1] = test system: lipoprotein lipase (LPL) gene; experiment: LPL mRNA elevating action (RT-PCR quantification of LPL mRNA in C2Cl2 cells); assay type: cell-based, mouse; conditions: Mus musculus, 24 h, compound 10 μM, ratio relative to the amount of LPL mRNA in cells with DMSO only, read-out: Rate of increase in LPL mRNA
Method in brief: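 Mouse striated-muscle C2Cl2 cells in DMEM with 10% FBS exposed to compounds at 10 μM for 24 h. LPL mRNA quantified by RT-PCR and real-time PCR (20 cycles), expressed as ratio to DMSO-only cells set at 1.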

[2] = Solubility in gastric juice or intestinal juice model fluid (precipitation method using DMSO); assay type: physicochemical; conditions: room temperature
Method in brief: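 Compound in DMSO added to JP disintegration test fluid 1 (pH 1.2) or fluid 2 (pH 6.8) and shaken 24 h at room temperature. After filtration, dissolved concentration (μg/mL) determined by UV absorbance against compound calibration curves.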

[3] = pH 1.2, simulated gastric fluid, kinetic from dmso stock, 1st fluid for Disintegration Test of Japanese Pharmacopoeia (pH: 1.2), read-out: Solubility (μg/mL) 1st fluid
[4] = pH 6.8, kinetic from dmso stock, 2nd fluid for Disintegration Test of Japanese Pharmacopoeia (pH: 6.8), read-out: Solubility (μg/mL) 2nd fluid

Structure (SMILES) | fold induction at 10 µM [1] | solubility at 24 h [2, 3] | solubility at 24 h [2, 4] | melting point | Solubility (μg/mL) 1st fluid ([2]; 1st fluid for Disintegration Test of Japanese Pharmacopoeia (pH: 1.2), 24 hours)
COc1cc(-c2cnc(C3CCC(F)(F)CC3)[nH]2)ccc1O [Example 339] | 1.32 | > 62 µg/mL | 58.9 µg/mL (≈ 191 µM) | 131 to 136 °C | –
COc1cc(OCc2ncc(C(F)(F)F)cc2F)ccc1-c1cnc(C2CC(F)(F)C2)[nH]1 [Example 349] | 2.2 | 83.6 µg/mL (≈ 183 µM) | 10.8 µg/mL (≈ 23.6 µM) | 70 to 75 °C | –
COc1cc(OCc2ccc(C(F)(F)F)cn2)ccc1-c1c(Cl)nc(-c2ccc(Cl)nc2)n1C [Example 309] | 2.37 | 14.8 µg/mL (≈ 29.1 µM) | < 0.4 µg/mL | 133 to 135 °C | –
COc1cc(O)ccc1-c1[nH]c(-c2ccc(F)nc2)nc1C [Example 333] | 1.22 | 59 µg/mL (≈ 197 µM) | 5.2 µg/mL (≈ 17.4 µM) | 154 to 159 °C | –
COc1cc(OCc2ncc(C(F)(F)F)cc2F)ccc1-c1[nH]c(C2CC(F)(F)C2)nc1Cl [Example 353] | 4.08 | 85.4 µg/mL (≈ 174 µM) | 0.5 µg/mL (≈ 1.02 µM) | 167 to 169 °C | –
COc1cc(-c2[nH]c(C(C)(C)C)nc2Cl)ccc1OCc1ncc(C(F)(F)F)cc1F [Example 384] | 1.84 | 86.4 µg/mL (≈ 189 µM) | 1.2 µg/mL (≈ 2.62 µM) | 179 to 184 °C | –
COc1cc(OC(C)c2ccc(C(F)(F)F)cn2)ccc1-c1nc(-c2ccc(F)nc2)[nH]c1Cl (stereo not shown) [Example 207] | 2.5 | – | 0.4 µg/mL (≈ 0.812 µM) | 166 to 169 °C | 83.4 µg/mL (≈ 169 µM)
COc1cc(OCc2ccc(C(F)(F)F)nc2)ccc1-c1cnc(-c2ccc(Br)nc2)[nH]1 [Example 388] | 2.13 | 0.8 µg/mL (≈ 1.58 µM) | < 0.4 µg/mL | 222 to 224 °C | –
COc1cc(OCc2ccc(C(F)(F)F)nc2)ccc1-c1c[nH]c(-c2ccc(F)nc2)n1 [Example 1, 2-fluoro-5-[5-[2-methoxy-4-((6-(trifluoromethyl)pyridin-3-yl)methoxy)phenyl]-1H-imidazol-2-yl]pyridine] | 2.97 | 20.7 µg/mL (≈ 46.6 µM) | 1.7 µg/mL (≈ 3.83 µM) | 165 to 166 °C | –
COc1cc(-c2[nH]c(C3CCC(F)(F)CC3)nc2Cl)ccc1OCc1ccc(C(F)(F)F)cn1 [Example 209] | 5.34 | 99.4 µg/mL (≈ 198 µM) | < 0.4 µg/mL | 175 to 177 °C | –
COc1cc(OCc2ccc(C(F)(F)F)cn2)ccc1-c1[nH]c(-c2ccc(Cl)nc2)nc1I [Example 208] | 4.72 | 24.9 µg/mL (≈ 42.4 µM) | < 0.4 µg/mL | 204 to 208 °C (dec.) | –
COc1cc(OCc2c(F)cc(C(F)(F)F)c[n+]2[O-])ccc1-c1[nH]c(-c2ccc(F)nc2)nc1Cl [Example 317] | 2.9 | 69.1 µg/mL (≈ 135 µM) | 9.3 µg/mL (≈ 18.1 µM) | 105 to 110 °C | –
COc1cc(OC(C)c2cccc(C(F)(F)F)n2)ccc1-c1[nH]c(-c2ccc(F)nc2)nc1Cl (stereo not shown) [Example 237] | 2.82 | 7.1 µg/mL (≈ 14.4 µM) | < 1.8 µg/mL | 170 to 175 °C | –
COCn1cc(-c2ccc(OCc3ccc(C(F)(F)F)cn3)cc2OC)nc1-c1ccc(Cl)nc1 [Example 167] | 2.23 | 100 µg/mL (≈ 199 µM) | 0.4 µg/mL (≈ 0.792 µM) | 138 to 140 °C | –
COc1cc(OCc2ncc(C(F)(F)F)cc2F)ccc1-c1[nH]c(C2CCC(F)(F)CC2)nc1Br [Example 337] | 3.07 | 110 µg/mL (≈ 195 µM) | 0.5 µg/mL (≈ 0.886 µM) | 190 to 191 °C | –
COc1cc(OCc2ncc(Cl)cc2C(F)(F)F)ccc1-c1[nH]c(-c2ccc(F)nc2)nc1Br [Example 274] | 3.41 | 6.7 µg/mL (≈ 12 µM) | 0.4 µg/mL (≈ 0.717 µM) | 167 to 168 °C | –
COc1cc(OCc2ccc(C(F)(F)F)nc2)c(C)cc1-c1cnc(-c2ccc(F)nc2)[nH]1 [Example 15] | 4.27 | 7.8 µg/mL (≈ 17 µM) | < 8.1 µg/mL | 199 to 201 °C (dec.) | –
COc1cc(-c2[nH]c(C3CC(F)(F)C3)nc2Br)ccc1OCc1ccc(C(F)(F)F)nc1 [Example 178] | 3.58 | 98.5 µg/mL (≈ 190 µM) | 1.7 µg/mL (≈ 3.28 µM) | 168 to 170 °C | –
COc1cc(OCc2coc(C)n2)ccc1-c1nc(-c2ccc(Cl)nc2)[nH]c1Cl [Example 211] | 2.55 | 84.7 µg/mL (≈ 196 µM) | 2.2 µg/mL (≈ 5.1 µM) | 136 to 155 °C | –

Structure (SMILES) | fold induction at 10 µM [1] | solubility at 24 h [2, 3] | solubility at 24 h [2, 4] | melting point | Solubility (μg/mL) 1st fluid ([2]; 1st fluid for Disintegration Test of Japanese Pharmacopoeia (pH: 1.2), 24 hours)
COc1cc(OCc2c(F)cc(C(F)(F)F)c[n+]2[O-])ccc1-c1cnc(-c2ccc(F)nc2)[nH]1 [Example 316] | 2.53 | 94.4 µg/mL (≈ 197 µM) | 4.9 µg/mL (≈ 10.2 µM) | 162 to 167 °C | –
COc1cc(OCc2ncc(C(F)(F)F)cc2F)ccc1-c1[nH]c(C2CCCC2)nc1Cl [Example 367] | 2.54 | 82.1 µg/mL (≈ 175 µM) | < 0.3 µg/mL | 139 to 142 °C | –
COc1cc(OCc2ncc(C(F)(F)F)cc2F)ccc1-c1[nH]c(-c2ccc(F)nc2)nc1C(F)(F)F [Example 411, 3-fluoro-2-[[4-(2-(6-fluoropyridin-3-yl)-4-(trifluoromethyl)-1H-imidazol-5-yl)-3-methoxyphenoxy]methyl]-5-(trifluoromethyl)pyridine] | 1.62 | 3.1 µg/mL (≈ 5.84 µM) | 3 µg/mL (≈ 5.66 µM) | 181 to 182 °C | –
COc1cc(-c2[nH]c(C(C)C)nc2Cl)ccc1OCc1ncc(C(F)(F)F)cc1F [Example 386] | 2.77 | 82.7 µg/mL (≈ 186 µM) | 0.9 µg/mL (≈ 2.03 µM) | 188 to 191 °C (dec.) | –
COc1cc(-c2c[nH]c(C3CCC3)n2)ccc1OCc1ccc(C(F)(F)F)cn1 [Example 73] | 4.07 | > 108 µg/mL | 5.3 µg/mL (≈ 13.1 µM) | 210 to 213 °C (dec.) | –
COc1cc(OCc2cncc(C(F)(F)F)c2)ccc1-c1cnc(-c2ccc(Cl)nc2)[nH]1 [Example 106] | 2.66 | 31.2 µg/mL (≈ 67.7 µM) | 6.3 µg/mL (≈ 13.7 µM) | 191 to 203 °C | –
COc1cc(OCc2ncc(C(F)(F)F)cc2F)ccc1-c1[nH]c(C2CCC2)nc1Cl [Example 373] | 3.03 | 88.3 µg/mL (≈ 194 µM) | < 0.3 µg/mL | 155 to 157 °C | –
COc1cc(OCc2ccc(C(F)(F)F)cn2)ccc1-c1c[nH]c(-c2ccc(O)nc2)n1 [Example 18] | 1.05 | 43.5 µg/mL (≈ 98.3 µM) | 3.7 µg/mL (≈ 8.36 µM) | > 250 °C | –
Oc1ccc(-c2cnc(-c3ccc(F)nc3)[nH]2)cc1 [Example 343] | 1.42 | 50 µg/mL (≈ 196 µM) | 39.2 µg/mL (≈ 154 µM) | > 270 °C | –
COc1cc(OCc2ncc(C(F)(F)F)cc2F)ccc1-c1cnc(C2CCCC2)[nH]1 [Example 365] | 3.02 | 77.9 µg/mL (≈ 179 µM) | 31.2 µg/mL (≈ 71.7 µM) | 97 to 102 °C | –
COc1cc(OCc2ncccc2C#N)ccc1-c1[nH]c(C2CCC(F)(F)CC2)nc1Cl [Example 185] | 2.41 | 87.4 µg/mL (≈ 190 µM) | 23.1 µg/mL (≈ 50.3 µM) | 161 to 162 °C | –
COc1cc(OCc2ncc(C(F)(F)F)cc2Br)ccc1-c1cnc(-c2ccc(F)nc2)[nH]1 [Example 133] | 2.43 | 29.3 µg/mL (≈ 56 µM) | 2 µg/mL (≈ 3.82 µM) | 153 to 170 °C | –
Oc1cc(OCc2ncc(C(F)(F)F)cc2F)ccc1-c1cnc(-c2ccc(F)nc2)[nH]1 [Example 406, 5-[[3-fluoro-5-(trifluoromethyl)pyridin-2-yl]methoxy]-2-[2-(6-fluoropyridin-3-yl)-1H-imidazol-5-yl]phenol] | 2.62 | > 90 µg/mL | 12.4 µg/mL (≈ 27.7 µM) | 202 to 207 °C | –
COc1cc(OCc2coc(C)n2)ccc1-c1c[nH]c(-c2ccc(Cl)nc2)n1 [Example 19] | 1.7 | 76.7 µg/mL (≈ 193 µM) | 2.2 µg/mL (≈ 5.54 µM) | 168 to 171 °C | –
COc1cc(OCc2ccnc(C(F)(F)F)c2)ccc1-c1cnc(-c2ccc(F)nc2)[nH]1 [Example 135] | 3.14 | 6.8 µg/mL (≈ 15.3 µM) | 2.2 µg/mL (≈ 4.95 µM) | 212 to 244 °C | –
COc1c(OCc2ccc(C(F)(F)F)cn2)ccc(-c2c[nH]c(C3CCC(F)(F)CC3)n2)c1OC [Example 57] | 3.72 | > 99 µg/mL | 0.8 µg/mL (≈ 1.61 µM) | 155 to 157 °C | –
COc1cc(OCc2ncc(F)cc2F)ccc1-c1cnc(-c2ccc(Cl)nc2)[nH]1 [Example 103] | 2.36 | 36 µg/mL (≈ 84 µM) | < 0.3 µg/mL | 190 to 192 °C | –
COc1ccc(-c2nc(-c3ccc(OCc4ccc(C(F)(F)F)cn4)cc3OC)c[nH]2)cn1 [Example 79] | 1.42 | 10.6 µg/mL (≈ 23.2 µM) | 1.2 µg/mL (≈ 2.63 µM) | 187 to 189 °C | –
